Measurements taken from ChEMBL document CHEMBL6134788, “Development of naphthalimide hydrazide derivatives as potent antibacterial agents against carbapenem-resistant A. baumannii” (RSC Med Chem, 2024).
In brackets after ≈: the same amount, converted by molar mass.

Legend:
Acinetobacter baumannii [1] = test: Antibacterial activity against carbapenem-resistant Acinetobacter baumannii BAA 1605 assessed as inhibition of bacterial growth incubated for 16 to 18 hrs by CLSI protocol based method; assay type: functional; conditions: time 16-18 hrs, read-out: MIC100
Acinetobacter baumannii [2] = test: Antibacterial activity against multi-drug resistant Acinetobacter baumannii H72721 assessed as inhibition of bacterial growth incubated for 16 to 18 hrs by CLSI protocol based method; assay type: functional; conditions: time 16-18 hrs, read-out: MIC100
Acinetobacter baumannii [3] = test: Antibacterial activity against multi-drug resistant Acinetobacter baumannii clinical isolate 1 assessed as inhibition of bacterial growth incubated for 16 to 18 hrs by CLSI protocol based method; assay type: functional; conditions: time 16-18 hrs, read-out: MIC100
Acinetobacter baumannii [4] = test: Antibacterial activity against multi-drug resistant Acinetobacter baumannii clinical isolate 2 assessed as inhibition of bacterial growth incubated for 16 to 18 hrs by CLSI protocol based method; assay type: functional; conditions: time 16-18 hrs, read-out: MIC100
Acinetobacter baumannii [5] = test: Antibacterial activity against multi-drug resistant Acinetobacter baumannii clinical isolate 3 assessed as inhibition of bacterial growth incubated for 16 to 18 hrs by CLSI protocol based method; assay type: functional; conditions: time 16-18 hrs, read-out: MIC100
Acinetobacter baumannii [6] = test: Antibacterial activity against multi-drug resistant Acinetobacter baumannii clinical isolate 4 assessed as inhibition of bacterial growth incubated for 16 to 18 hrs by CLSI protocol based method; assay type: functional; conditions: time 16-18 hrs, read-out: MIC100
Acinetobacter baumannii [7] = test: Antibacterial activity against multi-drug resistant Acinetobacter baumannii clinical isolate 5 assessed as inhibition of bacterial growth incubated for 16 to 18 hrs by CLSI protocol based method; assay type: functional; conditions: time 16-18 hrs, read-out: MIC100
Acinetobacter baumannii [8] = test: Antibacterial activity against multi-drug resistant Acinetobacter baumannii clinical isolate 6 assessed as inhibition of bacterial growth incubated for 16 to 18 hrs by CLSI protocol based method; assay type: functional; conditions: time 16-18 hrs, read-out: MIC100
Acinetobacter baumannii [9] = test: Antibacterial activity against multi-drug resistant Acinetobacter baumannii clinical isolate 7 assessed as inhibition of bacterial growth incubated for 16 to 18 hrs by CLSI protocol based method; assay type: functional; conditions: time 16-18 hrs, read-out: MIC100
Acinetobacter baumannii [10] = test: Antibacterial activity against multi-drug resistant Acinetobacter baumannii clinical isolate 8 assessed as inhibition of bacterial growth incubated for 16 to 18 hrs by CLSI protocol based method; assay type: functional; conditions: time 16-18 hrs, read-out: MIC100
Acinetobacter baumannii [11] = test: Antibacterial activity against multi-drug resistant Acinetobacter baumannii clinical isolate 9 assessed as inhibition of bacterial growth incubated for 16 to 18 hrs by CLSI protocol based method; assay type: functional; conditions: time 16-18 hrs, read-out: MIC100
Acinetobacter baumannii [12] = test: Antibacterial activity against multi-drug resistant Acinetobacter baumannii clinical isolate 10 assessed as inhibition of bacterial growth incubated for 16 to 18 hrs by CLSI protocol based method; assay type: functional; conditions: time 16-18 hrs, read-out: MIC100
Acinetobacter baumannii [13] = test: Antibacterial activity against multi-drug resistant Acinetobacter baumannii clinical isolate 11 assessed as inhibition of bacterial growth incubated for 16 to 18 hrs by CLSI protocol based method; assay type: functional; conditions: time 16-18 hrs, read-out: MIC100
Acinetobacter baumannii [14] = test: Antibacterial activity against multi-drug resistant Acinetobacter baumannii clinical isolate 12 assessed as inhibition of bacterial growth incubated for 16 to 18 hrs by CLSI protocol based method; assay type: functional; conditions: time 16-18 hrs, read-out: MIC100
Acinetobacter baumannii [15] = test: Antibacterial activity against multi-drug resistant Acinetobacter baumannii NR-17777 assessed as inhibition of bacterial growth incubated for 16 to 18 hrs by CLSI protocol based method; assay type: functional; conditions: time 16-18 hrs, read-out: MIC100
Acinetobacter baumannii [16] = test: Antibacterial activity against multi-drug resistant Acinetobacter baumannii 5-032 assessed as inhibition of bacterial growth incubated for 16 to 18 hrs by CLSI protocol based method; assay type: functional; conditions: time 16-18 hrs, read-out: MIC100
Acinetobacter baumannii [17] = test: Antibacterial activity against multi-drug resistant Acinetobacter baumannii 5-109 assessed as inhibition of bacterial growth incubated for 16 to 18 hrs by CLSI protocol based method; assay type: functional; conditions: time 16-18 hrs, read-out: MIC100
Acinetobacter baumannii [18] = test: Antibacterial activity against multi-drug resistant Acinetobacter baumannii 5-143 assessed as inhibition of bacterial growth incubated for 16 to 18 hrs by CLSI protocol based method; assay type: functional; conditions: time 16-18 hrs, read-out: MIC100
Acinetobacter baumannii [19] = test: Antibacterial activity against multi-drug resistant Acinetobacter baumannii 5-189 assessed as inhibition of bacterial growth incubated for 16 to 18 hrs by CLSI protocol based method; assay type: functional; conditions: time 16-18 hrs, read-out: MIC100
Acinetobacter baumannii [20] = test: Antibacterial activity against multi-drug resistant Acinetobacter baumannii BC-5 assessed as inhibition of bacterial growth incubated for 16 to 18 hrs by CLSI protocol based method; assay type: functional; conditions: time 16-18 hrs, read-out: MIC100
Acinetobacter baumannii [21] = test: Antibacterial activity against multi-drug resistant Acinetobacter baumannii Naval-17 assessed as inhibition of bacterial growth incubated for 16 to 18 hrs by CLSI protocol based method; assay type: functional; conditions: time 16-18 hrs, read-out: MIC100
Acinetobacter baumannii [22] = test: Antibacterial activity against multi-drug resistant Acinetobacter baumannii Naval-18 assessed as inhibition of bacterial growth incubated for 16 to 18 hrs by CLSI protocol based method; assay type: functional; conditions: time 16-18 hrs, read-out: MIC100
Acinetobacter baumannii [23] = test: Antibacterial activity against multi-drug resistant Acinetobacter baumannii Naval-81 assessed as inhibition of bacterial growth incubated for 16 to 18 hrs by CLSI protocol based method; assay type: functional; conditions: time 16-18 hrs, read-out: MIC100
Acinetobacter baumannii [24] = test: Antibacterial activity against multi-drug resistant Acinetobacter baumannii WL-136 assessed as inhibition of bacterial growth incubated for 16 to 18 hrs by CLSI protocol based method; assay type: functional; conditions: time 16-18 hrs, read-out: MIC100
Acinetobacter baumannii [25] = test: Antibacterial activity against multi-drug resistant Acinetobacter baumannii WL-487 assessed as inhibition of bacterial growth incubated for 16 to 18 hrs by CLSI protocol based method; assay type: functional; conditions: time 16-18 hrs, read-out: MIC100
Acinetobacter baumannii [26] = test: Antibacterial activity against Acinetobacter baumannii ATCC 17978 assessed as inhibition of bacterial growth incubated for 16 to 18 hrs by CLSI protocol based method; assay type: functional; conditions: time 16-18 hrs, read-out: MIC100
Escherichia coli = test: Antibacterial activity against Escherichia coli ATCC 25922 assessed as inhibition of bacterial growth incubated for 16 to 18 hrs by CLSI protocol based method; assay type: functional; conditions: time 16-18 hrs, read-out: MIC100
Staphylococcus aureus = test: Antibacterial activity against Staphylococcus aureus ATCC 29213 assessed as inhibition of bacterial growth incubated for 16 to 18 hrs by CLSI protocol based method; assay type: functional; conditions: time 16-18 hrs, read-out: MIC100
Klebsiella pneumoniae = test: Antibacterial activity against Klebsiella pneumoniae BAA 1705 assessed as inhibition of bacterial growth incubated for 16 to 18 hrs by CLSI protocol based method; assay type: functional; conditions: time 16-18 hrs, read-out: MIC100
Pseudomonas aeruginosa = test: Antibacterial activity against Pseudomonas aeruginosa ATCC 27853 assessed as inhibition of bacterial growth incubated for 16 to 18 hrs by CLSI protocol based method; assay type: functional; conditions: time 16-18 hrs, read-out: MIC100
[27] = Cytotoxicity against African green monkey Vero cells assessed as reduction in cell viability incubated for 72 hrs by MTT assay; assay type: toxicity, cell-based; conditions: chlorocebus sabaeus
[28] = Selectivity index, ratio of CC50 for cytotoxicity against African green monkey VERO cells to MIC for antibacterial activity against carbapenem-resistant Acinetobacter baumannii BAA 1605 assessed as inhibition of bacterial growth; assay type: toxicity, cell-based; conditions: read-out: Selectivity Index

SMILES | MIC (Acinetobacter baumannii [1]) | MIC (Acinetobacter baumannii [2]) | MIC (Acinetobacter baumannii [3]) | MIC (Acinetobacter baumannii [4]) | MIC (Acinetobacter baumannii [5]) | MIC (Acinetobacter baumannii [6]) | MIC (Acinetobacter baumannii [7]) | MIC (Acinetobacter baumannii [8]) | MIC (Acinetobacter baumannii [10]) | MIC (Acinetobacter baumannii [11]) | MIC (Acinetobacter baumannii [12]) | MIC (Acinetobacter baumannii [13]) | MIC (Acinetobacter baumannii [14]) | MIC (Acinetobacter baumannii [16]) | MIC (Acinetobacter baumannii [18]) | MIC (Acinetobacter baumannii [21]) | MIC (Acinetobacter baumannii [22]) | MIC (Acinetobacter baumannii [24]) | MIC (Acinetobacter baumannii [25]) | MIC (Acinetobacter baumannii [26]) | other results
CN(C)c1ccc(O)c2c1C[C@H]1C[C@H]3[C@H](N(C)C)C(O)=C(C(N)=O)C(=O)[C@@]3(O)C(O)=C1C2=O [MINOCYCLINE] | 2 µg/mL (≈ 4.37 µM) | 2 µg/mL (≈ 4.37 µM) | 2 µg/mL (≈ 4.37 µM) | 2 µg/mL (≈ 4.37 µM) | 1 µg/mL (≈ 2.19 µM) | 2 µg/mL (≈ 4.37 µM) | 8 µg/mL (≈ 17.5 µM) | 4 µg/mL (≈ 8.74 µM) | 4 µg/mL (≈ 8.74 µM) | 4 µg/mL (≈ 8.74 µM) | 2 µg/mL (≈ 4.37 µM) | 2 µg/mL (≈ 4.37 µM) | 4 µg/mL (≈ 8.74 µM) | 0.25 µg/mL (≈ 0.546 µM) | 0.25 µg/mL (≈ 0.546 µM) | 16 µg/mL (≈ 35 µM) | 1 µg/mL (≈ 2.19 µM) | 0.25 µg/mL (≈ 0.546 µM) | 0.25 µg/mL (≈ 0.546 µM) | 0.125 µg/mL (≈ 0.273 µM) | MIC (Acinetobacter baumannii [9]): 8 µg/mL (≈ 17.5 µM); MIC (Acinetobacter baumannii [15]): 2 µg/mL (≈ 4.37 µM); MIC (Acinetobacter baumannii [17]): 2 µg/mL (≈ 4.37 µM); MIC (Acinetobacter baumannii [19]): 8 µg/mL (≈ 17.5 µM); MIC (Acinetobacter baumannii [20]): 2 µg/mL (≈ 4.37 µM); MIC (Acinetobacter baumannii [23]): 1 µg/mL (≈ 2.19 µM)
O=C(CCN1C(=O)c2cccc3cccc(c23)C1=O)NNc1ccc(F)cc1 | 1 µg/mL (≈ 2.65 µM) | 2 µg/mL (≈ 5.3 µM) | 2 µg/mL (≈ 5.3 µM) | 2 µg/mL (≈ 5.3 µM) | 0.5 µg/mL (≈ 1.32 µM) | 2 µg/mL (≈ 5.3 µM) | 4 µg/mL (≈ 10.6 µM) | 4 µg/mL (≈ 10.6 µM) | 2 µg/mL (≈ 5.3 µM) | 2 µg/mL (≈ 5.3 µM) | 2 µg/mL (≈ 5.3 µM) | 2 µg/mL (≈ 5.3 µM) | 2 µg/mL (≈ 5.3 µM) | 4 µg/mL (≈ 10.6 µM) | 2 µg/mL (≈ 5.3 µM) | 2 µg/mL (≈ 5.3 µM) | 2 µg/mL (≈ 5.3 µM) | 2 µg/mL (≈ 5.3 µM) | 1 µg/mL (≈ 2.65 µM) | 1 µg/mL (≈ 2.65 µM) | MIC (Escherichia coli): > 64 µg/mL; MIC (Staphylococcus aureus): > 64 µg/mL; MIC (Klebsiella pneumoniae): > 64 µg/mL; MIC (Pseudomonas aeruginosa): > 64 µg/mL; CC50 at 72 h [27]: 80 µg/mL (≈ 212 µM); selectivity ratio [28]: 80; MIC (Acinetobacter baumannii [9]): 2 µg/mL (≈ 5.3 µM); MIC (Acinetobacter baumannii [15]): 4 µg/mL (≈ 10.6 µM); MIC (Acinetobacter baumannii [17]): 4 µg/mL (≈ 10.6 µM); MIC (Acinetobacter baumannii [19]): 4 µg/mL (≈ 10.6 µM); MIC (Acinetobacter baumannii [20]): 1 µg/mL (≈ 2.65 µM); MIC (Acinetobacter baumannii [23]): 2 µg/mL (≈ 5.3 µM)
C[C@H]1COc2c(N3CCN(C)CC3)c(F)cc3c(=O)c(C(=O)O)cn1c23 [LEVOFLOXACIN ANHYDROUS] | 4 µg/mL (≈ 11.1 µM) | – | 32 µg/mL (≈ 88.6 µM) | > 64 µg/mL | 64 µg/mL (≈ 177 µM) | > 64 µg/mL | – | 4 µg/mL (≈ 11.1 µM) | 4 µg/mL (≈ 11.1 µM) | 4 µg/mL (≈ 11.1 µM) | > 64 µg/mL | 64 µg/mL (≈ 177 µM) | 4 µg/mL (≈ 11.1 µM) | 0.25 µg/mL (≈ 0.692 µM) | 1 µg/mL (≈ 2.77 µM) | 16 µg/mL (≈ 44.3 µM) | 4 µg/mL (≈ 11.1 µM) | 0.25 µg/mL (≈ 0.692 µM) | 0.125 µg/mL (≈ 0.346 µM) | 0.03 µg/mL (≈ 0.083 µM) | MIC (Staphylococcus aureus): 0.25 µg/mL (≈ 0.692 µM); CC50 at 72 h [27]: > 400 µg/mL
